Results from ChEMBL document CHEMBL5727538, “Pyridazinones as PARP7 inhibitors” (2020).

Molecular target: T1, Protein mono-ADP-ribosyltransferase TIPARP (Homo sapiens, UniProt Q7Z3E1)
T1 sequence (Q7Z3E1 whole entry): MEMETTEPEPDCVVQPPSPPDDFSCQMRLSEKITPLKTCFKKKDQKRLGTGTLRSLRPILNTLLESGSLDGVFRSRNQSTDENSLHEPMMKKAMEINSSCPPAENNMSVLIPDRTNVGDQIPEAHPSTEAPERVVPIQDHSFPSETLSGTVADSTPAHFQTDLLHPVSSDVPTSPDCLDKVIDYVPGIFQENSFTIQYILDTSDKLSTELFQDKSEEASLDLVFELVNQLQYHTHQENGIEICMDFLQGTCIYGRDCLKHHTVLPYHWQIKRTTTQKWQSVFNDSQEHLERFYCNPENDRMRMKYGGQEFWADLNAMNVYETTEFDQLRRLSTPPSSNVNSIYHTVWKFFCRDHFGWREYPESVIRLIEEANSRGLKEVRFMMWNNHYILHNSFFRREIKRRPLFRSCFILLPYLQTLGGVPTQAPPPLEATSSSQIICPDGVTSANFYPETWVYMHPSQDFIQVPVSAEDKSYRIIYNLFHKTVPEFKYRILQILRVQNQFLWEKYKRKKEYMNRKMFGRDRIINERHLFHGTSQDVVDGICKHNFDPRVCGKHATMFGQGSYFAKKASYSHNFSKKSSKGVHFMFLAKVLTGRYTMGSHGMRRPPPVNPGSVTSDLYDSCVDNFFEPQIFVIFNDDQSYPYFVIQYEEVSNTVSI
Test: Enzymatic Assay for Inhibition of PARP7: Displacement of Probe A, a biotinylated probe binding to the TIPARP active site, was measured using a time-resolved fluorescence energy transfer (TR-FRET) assay. 20 nL of a dose response curve of each test compound was spotted in black 384-well polystyrene proxiplates (Perkin Elmer) using a Mosquito (TTP Labtech). Reactions were performed in a 8 μL volume by adding 6 μL of TIPARP and Probe A in assay buffer (20 mM HEPES pH=8, 100 mM NaCl, 0.1% bovine serum albumin, 2 mM DTT and 0.002% Tween20), incubating with test compound at 25° C. for 30 min, then adding 2 μL of ULight-anti 6×His and LANCE Eu-W1024 labeled streptavidin (Perkin Elmer). The final concentrations of TIPARP and Probe A were 6 nM and 2 nM, respectively. The final concentration of ULight-anti 6xHis and LANCE Eu-W1024 labeled streptavidin were 4 nM and 0.25 nM, respectively. Reactions were incubated at 25° C. for an additional 30 min, then read on an Envision platereader equipped with a LANCE/DELFIA top mirror (Perkin Elmer) using excitation of 320 nm and emission of 615 nm and […] with a 90 μs delay. The ratio of the 665/615 nm emission were calculated for each well to determine the amount of complex of TIPARP and Probe A in each well. […] The Hill Coefficient is normally allowed to float but may also be fixed at 1 in a 3-parameter fit. Y is the % inhibition and x is the compound concentration.

| SMILES | IC50 |
| --- | --- |
| C[C@@H](COCCC(=O)N1CCC(Nc2ncc(C(F)(F)F)s2)C1)Nc1cn[nH]c(=O)c1C(F)(F)F (stereo partly drawn) | < 100 nM |
| O=C(CCOC[C@H](Nc1cn[nH]c(=O)c1C(F)(F)F)C1CCNCC1)N1CCN(c2ncc(C(F)(F)F)cn2)CC1 | < 100 nM |
| N#Cc1ccc(N2CCN(C(=O)CCOCCOC3CN(c4cn[nH]c(=O)c4C(F)(F)F)C3)CC2)nc1 | > 1000 nM |
| O=c1[nH]ncc(N2Cc3cccc(O)c3C2)c1C(F)(F)F | < 100 nM |
| N#Cc1ccc(N2CCN(C(=O)[C@H]3C[C@H](OC[C@@H]4CCCN4c4cn[nH]c(=O)c4C(F)(F)F)C3)CC2)nc1 | < 100 nM |
| N#Cc1ccc(N2CCN(C(=O)CC3COCCN3c3cn[nH]c(=O)c3C(F)(F)F)CC2)nc1 (stereo not drawn) | < 100 nM |
| O=C(CCOC[C@@H]1CCCN1c1cn[nH]c(=O)c1C(F)(F)F)N[C@H]1CC[C@H](Nc2ccccn2)CC1 | 100 to 1000 nM |
| O=C(COC[C@@H]1CCCN1c1cn[nH]c(=O)c1C(F)(F)F)N[C@H]1CC[C@@H](Nc2ccccn2)CC1 | 100 to 1000 nM |
